Assay [1] has as its system MCF 7 (Breast). Put plainly: In vitro one dose primary anticancer assay (NCI), MCF 7. The assay is classed as cell-based, human. As to the method: (§1) Biological Activity: In vitro anticancer activity studies were carried out at National Caner Institute (USA) and the thermal denaturation of DNA was performed at School of Life Science, University of Hyderabad.
(§2) Table 1: Thermal denaturation with calf thymus DNA^a, at a [PBD]:[DNA]molar ratio of 1:5^b and in vitro one dose primary anticancer assay^c in the NCI-H460, MCF 7 and SF-268 for Vi, wherein R is H; R1 is H, OH or OAc; and n is 3 to 5.
(§3) In this assay, for a 1:5 molar ratio of (PBD):(DNA), one of this mixed imine-amide PBD dimer VI, where n is 5, elevates the helix melting temperature of CT DNA remarkably to 17° C. after incubation for 18 h at 37° C.

For assay [2], the system named is calf thymus DNA. Put plainly: Thermal denaturation with calf thymus DNA. It is filed as binding. As to conditions: for ΔTm (elevation of helix melting temperature of CT DNA): 1:5 molar ratio (PBD):(DNA), incubation for 18 h at 37° C.; for Induced ΔTm after Incubation at 37° C. for 0 h / Induced ΔTm after Incubation at 37° C. for 18 h: [PBD]:[DNA] molar ratio 1:5. The protocol: as §1, §2

Assay [3] relates to SF-268 (CNS). Put plainly: In vitro one dose primary anticancer assay (NCI), SF-268. The assay is classed as cell-based, human. As to the method:
as §1, §2, §3

For assay [4], the system named is NCI-H460 (Lung). Put plainly: In vitro one dose primary anticancer assay (NCI), NCI-H460. It is filed as cell-based, human. The protocol:
as §1, §2, §3

The test system of assay [5] is P388. As to conditions: Kaneko et al., J. Med Chem. 1985; cited from earlier work.

On to `COc1cc2c(cc1OCCCCCOc1cc3c(cc1OC)NC(=O)[C@H]1CCCN1C3=O)N=C[C@@H]1CCCN1C2=O` [VI (n is 5), 8-methoxy-7-3-[7-methoxy-5-oxo-(11aS)-2,3,4,11a-tetrahydro-1H-pyrrolo[2,1-c][1,4]-benzodiazepine-8-yloxy]pentyloxy-(11aR)-2,3,5,10,11a hexahydro-1H -pyrrolo[2,1-c][1,4]benzodiazepine-5,11-dione], for which, in assay [1], the “Growth Percentage (Breast) MCF 7” value came out at 7. In assay [2], the “ΔTm (elevation of helix melting temperature of CT DNA)” value was 17 °C, the “Induced ΔTm after Incubation at 37° C. for 0 h” value (from here on “Induced ΔTm … for 0 h”) is on record as 14.0 C and the “Induced ΔTm after Incubation at 37° C. for 18 h” value (“Induced ΔTm … for 18 h” below) was 17.0 C. Also, in assay [3], the “Growth Percentage (CNS) SF-268” value is on record as −21. Moreover, the “Growth Percentage (Lung) NCI-H460” value in assay [4] is listed as −39.

In the case of `COc1cc2c(cc1OCCCOc1cc3c(cc1OC)C(=O)N1CCC[C@H]1C=N3)N=C[C@@H]1CCCN1C2=O` [DSB-120, reference compound], the “Induced ΔTm … for 0 h” value in assay [2] was found to be 10.2 C.

For `COc1cc2c(cc1OCCCOc1cc3c(cc1OC)NC(=O)[C@H]1CCCN1C3=O)N=C[C@@H]1CCCN1C2=O` [VI (n is 3)], the “Growth Percentage (Breast) MCF 7” value in assay [1] was 10. Further, in assay [2], the “Induced ΔTm … for 0 h” value stood at 6.5 C and the “Induced ΔTm … for 18 h” value is given as 7.0 C. Besides, the “Growth Percentage (CNS) SF-268” value in assay [3] was found to be 11. Besides, the “Growth Percentage (Lung) NCI-H460” value in assay [4] came to 4.

`COc1cc2c(cc1O)N=CC1CCCN1C2=O` (stereo not drawn) [DC-81, reference compound]: in assay [2], the “ΔTm (elevation of helix melting temperature of CT DNA)” value amounted to 0.7 °C, the “Induced ΔTm … for 0 h” value turned out to be 0.3 C and the “Induced ΔTm … for 18 h” value came to 0.7 C.

`COc1cc2c(cc1OC(C)=O)NC(=O)C1C[C@H](OC(C)=O)CN1C2=O` (stereo partly drawn) [(7-methoxy-2-methylcarbonyloxy-5,11-dioxo-(2S)-2,3,5,10,11,11a-hexahydro-1H-pyrrolo[2,1-c][1,4]-benzodiazepine-5,11-dione-8-yl acetate]: the “in vivo antitumour activity” value in assay [5] is “significant in vivo antitumour activity”.

`COc1cc2c(cc1OCCCCOc1cc3c(cc1OC)NC(=O)[C@H]1CCCN1C3=O)N=C[C@@H]1CCCN1C2=O` [VI (n is 4)]: in assay [1], the “Growth Percentage (Breast) MCF 7” value is −41. Moreover, in assay [2], the “Induced ΔTm … for 0 h” value is 5.0 C and the “Induced ΔTm … for 18 h” value amounted to 8.5 C. In assay [3], the “Growth Percentage (CNS) SF-268” value is listed as −81. Moreover, in assay [4], the “Growth Percentage (Lung) NCI-H460” value is recorded as −16.
